The results in this text go back to patent US20190031618A1, “BENZIMIDAZOLE DERIVATIVES USEFUL AS CB-1 INVERSE AGONISTS” (Janssen Pharmaceutica NV, priority 2015, published 2019).

Like-named read-outs stand apart in the source and are kept apart here. Where only a bound is given, the exact number is not on record here.

For assay [1], the target named is Human CB1R (Cannabinoid receptor 1) (Homo sapiens, UniProt P21554). The assay can be described thus: CB-1 in vitro cAMP (HTRF) assay. The assay is classed as cell-based. The following applies: cAMP HTRF, 250 nM forskolin, mean where tested more than once. A digest of the protocol: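 Intracellular cAMP from HTRF ratio (d2-cAMP vs Eu-cryptate anti-cAMP), converted to nM via per-plate standards, in stable human CB1R HEK-293 cells.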
Chain of Human CB1R (Cannabinoid receptor 1) (P21554 whole entry): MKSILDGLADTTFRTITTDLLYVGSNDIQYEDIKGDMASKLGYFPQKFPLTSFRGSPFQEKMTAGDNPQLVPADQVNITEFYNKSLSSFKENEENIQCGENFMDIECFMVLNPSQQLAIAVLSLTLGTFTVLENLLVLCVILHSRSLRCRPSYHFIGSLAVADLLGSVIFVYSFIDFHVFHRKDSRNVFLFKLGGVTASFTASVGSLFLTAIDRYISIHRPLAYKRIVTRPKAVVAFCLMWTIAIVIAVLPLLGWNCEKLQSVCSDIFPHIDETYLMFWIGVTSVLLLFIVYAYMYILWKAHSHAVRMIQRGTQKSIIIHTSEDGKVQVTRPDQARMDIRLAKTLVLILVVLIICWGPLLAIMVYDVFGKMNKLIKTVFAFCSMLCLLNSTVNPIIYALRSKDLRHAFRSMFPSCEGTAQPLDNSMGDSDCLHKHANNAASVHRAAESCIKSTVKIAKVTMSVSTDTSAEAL

The target in assay [2] is Human CB2R (Cannabinoid receptor 2) (Homo sapiens, UniProt P34972). The assay can be described thus: CB-2 in vitro cAMP (HTRF) assay. The class given is cell-based. The following applies: HEK cells, cAMP HTRF, 250 nM forskolin; mean where tested more than once; read-out: CB2 HEK_cAMP EC50. The gist of the method:
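HEK-293 cells stably expressing receptor, plated overnight at 4E5 cells/mL, tested with 1/3 serial dilutions of compound in HBSS/HEPES/BSA buffer with 0.5 mM IBMX and forskolin (diluted to 1.5 μM in buffer). cAMP measured by competitive HTRF immunoassay (d2-cAMP, cryptate anti-cAMP), signal inversely proportional to cAMP.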

The mark [3] stands for this setting: HEK cells, read-out: CB1 HEK_cAMP EC50.

Chain of Human CB2R (Cannabinoid receptor 2) (P34972 whole entry): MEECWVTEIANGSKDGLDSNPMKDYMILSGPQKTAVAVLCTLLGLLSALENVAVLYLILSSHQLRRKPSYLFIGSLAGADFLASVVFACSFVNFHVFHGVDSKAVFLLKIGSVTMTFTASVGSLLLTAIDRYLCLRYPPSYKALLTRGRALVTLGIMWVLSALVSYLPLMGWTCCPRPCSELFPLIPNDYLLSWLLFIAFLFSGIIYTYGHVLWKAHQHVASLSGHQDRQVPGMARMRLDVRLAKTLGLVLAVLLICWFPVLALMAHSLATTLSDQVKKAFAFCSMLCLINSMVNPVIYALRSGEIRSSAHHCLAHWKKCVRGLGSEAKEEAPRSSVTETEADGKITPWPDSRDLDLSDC

For the molecule `O=C(O)c1ccc(S(=O)(=O)N2CCC(n3c(C4CC4)nc4ccc(C(c5ccc(Cl)cc5)c5ccc(Cl)cc5)cc43)CC2)cc1C(F)(F)F` [Example 166], the EC50 in assay [1] (setting [3]) came out at 3.7 nM; in assay [2], 5020 nM.

In the case of `CCOC(=O)N1CCC(n2c(-c3nccs3)nc3ccc(C(c4ccc(Cl)cc4)c4nccs4)cc32)CC1` (centres unmarked) [Example 419], the EC50 in assay [1] (setting [3]) was 1180 nM; in assay [2], greater than 10000 nM.

As to `NC(=O)[C@H]1CC[C@@H](n2c(C3CC3)nc3ccc(C(c4ccc(Cl)cc4)c4ccc(Cl)cc4)cc32)CC1` [Example 136], the EC50 in assay [1] (setting [3]) stood at 32 nM; in assay [2], 9100 nM.

As for `Cc1ccc(C(c2ccc(C)cc2)c2ccc3nc(C4CC4)n(C4CCN(Cc5cccc(C(=O)O)c5)CC4)c3c2)cc1` [Example 96], the results for the EC50 in assay [1] (setting [3]) and in assay [2] were 27.3 nM and 7920 nM, respectively.

For the molecule `O=C(O)c1cccc(S(=O)(=O)N[C@H]2CC[C@H](n3c(C4CC4)nc4ccc(C(c5ccc(Cl)cc5)c5ccc(Cl)cc5)cc43)CC2)c1` [Example 22], the EC50 in assay [1] (setting [3]) was 89 nM; in assay [2], 1520 nM.

As for `NS(=O)(=O)N1CCC(n2c(C3CC3)nc3ccc(C(c4ccc(Cl)cc4)c4ccc(Cl)cc4)cc32)CC1` [Example 274], the EC50 was 133 nM in assay [1] (setting [3]) and greater than 10000 nM in assay [2].

On to `OC(Cn1c(C2CC2)nc2ccc(C(c3ccc(Cl)cc3)c3ccc(Cl)cc3)cc21)c1ccccc1` (single isomer, unassigned) [Example 289], for which the EC50 in assay [1] (setting [3]) is 29.2 nM; in assay [2], greater than 10000 nM.

`O=C(O)c1ccc(-c2cccc(CCn3c(C4CC4)nc4ccc(C(c5ccc(Cl)cc5)c5ccc(Cl)cc5)cc43)c2)s1` [Example 6]: the half-maximal effective concentration (EC50) in assay [1] (setting [3]) worked out at 28.3 nM; in assay [2], 3880 nM.

`O=S(=O)(CCN1CCNCC1)N1CCC(n2c(C3CC3)nc3ccc(C(c4ccc(Cl)cc4)c4ccc(Cl)cc4)cc32)CC1` [Example 45]: the values for the EC50 in assay [1] (setting [3]) and in assay [2] were 593 nM and greater than 42000 nM, respectively.

As to `Clc1ccc(C(c2ccc(Cl)cc2)c2ccc3nc(C4CC4)n(CCOc4cccc(Br)c4)c3c2)cc1` [Example 7], the figures for the EC50 in assay [1] (setting [3]) and in assay [2] were 26.7 nM and 7600 nM, respectively.

Regarding `O=S(=O)(N1CCC(n2c(C3COC3)nc3ccc(C(O)(c4ccc(Cl)cc4)c4ccc(Cl)cc4)cc32)CC1)C(F)(F)F` [Example 255], the figures for the EC50 in assay [1] (setting [3]) and in assay [2] were 7.3 nM and greater than 10000 nM, respectively.

On to `O=S(=O)(N1CCC(n2c(-c3cccnc3)nc3ccc(C(c4ccc(Cl)cc4)c4nccs4)cc32)CC1)C(F)(F)F` (centres unmarked) [Example 393], for which the 50% effective concentration (EC50) was 28 nM in assay [1] (setting [3]) and 63 nM in assay [2].

As to `Clc1ccc(C(c2ccc(Cl)cc2)c2ccc3ncn(C4Cc5ccccc5C4)c3c2)cc1` [Example 298], the results for the EC50 in assay [1] (setting [3]) and in assay [2] were 906 nM and 9000 nM, respectively.

In the case of `O=C(O)c1ccc(CN2CCC(n3c(C4CC4)nc4ccc(C(c5ccc(Cl)cc5)c5ccc(Cl)cc5)cc43)CC2)s1` [Example 128], the concentration for a half-maximal effect (EC50) was found to be 6.9 nM in assay [1] (setting [3]) and 4890 nM in assay [2].

Turning to `O=C(O)c1ccc(CCn2c(C3CC3)nc3ccc(C(c4ccc(Cl)cc4)c4ccc(Cl)cc4)cc32)cc1` [Example 38], the 50% effective concentration (EC50) turned out to be 4300 nM in assay [1] (setting [3]) and 1700 nM in assay [2].

Take `Cc1nc2ccc(C(c3ccc(Cl)cc3)c3nccs3)cc2n1Cc1ccc(Cl)cc1` (centres unmarked) [Example 463]: the EC50 in assay [1] (setting [3]) was 164 nM; in assay [2], greater than 7600 nM.

Take `NC(=O)COc1ccc(S(=O)(=O)N2CCC(n3c(C4CC4)nc4ccc(C(c5ccc(Cl)cc5)c5ccc(Cl)cc5)cc43)CC2)cc1` [Example 249]: the EC50 in assay [1] (setting [3]) is 5 nM; in assay [2], 1710 nM.

In the case of `O=C(O)c1cccc(OCCn2c(C3CC3)nc3ccc(C(c4ccc(Cl)cc4)c4ccc(Cl)cc4)cc32)c1` [Example 23], the EC50 amounted to 182 nM in assay [1] (setting [3]) and 1880 nM in assay [2].

Turning to `O=C(O)c1ccc(N2CCC(Cn3c(C4CC4)nc4ccc(C(c5ccc(Cl)cc5)c5ccc(Cl)cc5)cc43)CC2)cc1` [Example 1], the EC50 in assay [1] (setting [3]) is 11.4 nM; in assay [2], 2850 nM.

For `NC(=O)c1ccc(CN2CCC(n3c(C4CC4)nc4ccc(C(c5ccc(Cl)cc5)c5ccc(Cl)cc5)cc43)CC2)cc1` [Example 138], the EC50 in assay [1] (setting [3]) came to 13.9 nM; in assay [2], 3900 nM.

As to `NC(=O)COc1ccc(-n2c(C3CC3)nc3ccc(C(c4ccc(Cl)cc4)c4ccc(Cl)cc4)cc32)cc1` [Example 169], the figures for the EC50 in assay [1] (setting [3]) and in assay [2] were 45 nM and 7900 nM, respectively.

Consider `O=S(=O)(c1ccccc1O)N1CCC(n2c(C3CC3)nc3ccc(C(c4ccc(Cl)cc4)c4ccc(Cl)cc4)cc32)CC1` [Example 258], for which the results for the concentration for a half-maximal effect (EC50) in assay [1] (setting [3]) and in assay [2] were 20.1 nM and greater than 10000 nM, respectively.

For `O=C(O)c1ccc(S(=O)(=O)N2CCC(n3c(C4CC4)nc4ccc(C(CO)(c5ccc(Cl)cc5)c5ccc(Cl)cc5)cc43)CC2)cc1Cl` [Example 213], the figures for the half-maximal effective concentration (EC50) in assay [1] (setting [3]) and in assay [2] were 8310 nM and greater than 10000 nM, respectively.

For `O=S(=O)(c1ccc(F)cc1)N1CCC(n2c(C3CC3)nc3ccc(C(c4ccc(Cl)cc4)c4ccc(Cl)cc4)cc32)CC1` [Example 282], the values for the EC50 in assay [1] (setting [3]) and in assay [2] were 7.3 nM and greater than 10000 nM, respectively.

For the molecule `O=C(O)c1cccc(CN2CCC(Cn3c(C4CC4)nc4ccc(C(c5ccc(Cl)cc5)c5ccc(Cl)cc5)cc43)CC2)c1` [Example 10], the EC50 in assay [1] (setting [3]) worked out at 322 nM; in assay [2], 1750 nM.

As for `COCC(c1ccc(Cl)cc1)(c1ccc(Cl)cc1)c1ccc2nc(C3CC3)n(C3CCN(S(=O)(=O)c4ccc(C(=O)O)c(Cl)c4)CC3)c2c1` [Example 178], the values for the half-maximal effective concentration (EC50) in assay [1] (setting [3]) and in assay [2] were 67.5 nM and greater than 10000 nM, respectively.

For the molecule `O=C(O)c1cc(OCCn2c(C3CC3)nc3ccc(C(c4ccc(Cl)cc4)c4ccc(Cl)cc4)cc32)cc(C(F)(F)F)c1` [Example 16], the values for the 50% effective concentration (EC50) in assay [1] (setting [3]) and in assay [2] were 173 nM and 698 nM, respectively.

With `O=C(O)c1ccc(Cn2c(C3CC3)nc3ccc(C(c4ccc(Cl)cc4)c4ccc(Cl)cc4)cc32)cc1` [Example 132], the EC50 in assay [1] (setting [3]) and in assay [2] was greater than 10000 nM throughout.

Regarding `CCOC(=O)COc1cccc(Cn2c(C3CC3)nc3ccc(C(c4ccc(Cl)cc4)c4ccc(Cl)cc4)cc32)c1` [Example 144], the concentration giving a half-maximal response (EC50) was found to be 15.2 nM in assay [1] (setting [3]) and 4700 nM in assay [2].

Regarding `O=C(O)c1cnc(N2CCC(Cn3c(C4CC4)nc4ccc(C(c5ccc(Cl)cc5)c5ccc(Cl)cc5)cc43)CC2)nc1` [Example 4], the EC50 in assay [1] (setting [3]) worked out at 9.8 nM; in assay [2] it was 2160 nM.

Take `COc1ccc(S(=O)(=O)N2CCC(n3c(C4CC4)nc4ccc(C(c5ccc(Cl)cc5)c5ccc(Cl)cc5)cc43)CC2)cc1` [Example 281]: the figures for the 50% effective concentration (EC50) in assay [1] (setting [3]) and in assay [2] were 12.5 nM and greater than 10000 nM, respectively.

`CCOC(=O)COc1ccc(Cn2c(C3CC3)nc3ccc(C(c4ccc(Cl)cc4)c4ccc(Cl)cc4)cc32)cc1` [Example 175]: the concentration for a half-maximal effect (EC50) came to 5420 nM in assay [1] (setting [3]) and 4750 nM in assay [2].

`CCOC(=O)N1CCC(n2c(-c3ccc(Cl)cc3Cl)nc3ccc(C(c4ccc(Cl)cc4)c4nccs4)cc32)CC1` (centres unmarked) [Example 443]: the concentration giving a half-maximal response (EC50) in assay [1] (setting [3]) is 1430 nM; in assay [2], 4950 nM.

With `CCc1nc2ccc(C(c3ccc(Cl)cc3)c3ccc(Cl)cc3)cc2n1CCc1cccc(Cl)c1` [Example 311], the EC50 was 17.2 nM in assay [1] (setting [3]) and 8600 nM in assay [2].

With `Clc1ccc(C(c2ccc(Cl)cc2)c2ccc3nc(C4CC4)n(CC4CCOCC4)c3c2)cc1` [Example 120], the EC50 in assay [1] (CB1 HEK_cAMP EC50, HEK cells) stood at 24.9 nM; in assay [2], 5430 nM.

With `CCc1csc(C(c2ccc(Cl)cc2)c2ccc3nc(-c4ccc(Cl)cc4)n(Cc4ccc(Cl)cc4)c3c2)n1` (centres unmarked) [Example 456], the EC50 in assay [1] (setting [3]) was greater than 10000 nM; in assay [2], greater than 9200 nM.

Consider `COC(=O)c1cccc(-n2c(C3CC3)nc3ccc(C(c4ccc(Cl)cc4)c4ccc(Cl)cc4)cc32)c1` [Example 174], for which the EC50 in assay [1] (setting [3]) was 6550 nM; in assay [2], greater than 10000 nM.

In the case of `Cc1ccc(S(=O)(=O)N2CCC(n3c(C4CC4)nc4ccc(C(c5ccc(Cl)cc5)c5ccc(Cl)cc5)cc43)CC2)cc1C(N)=O` [Example 168], the 50% effective concentration (EC50) in assay [1] (setting [3]) is 91.2 nM; in assay [2] it was greater than 10000 nM.

`CCc1nc2ccc(C(c3ccc(Cl)cc3)c3ccc(Cl)cc3)cc2n1CCc1ccc(C(F)(F)F)cc1` [Example 314]: the EC50 in assay [1] (setting [3]) was determined as 20.1 nM; in assay [2], 2790 nM.

In the case of `CCOC(=O)N1CCC(n2c(CC(C)C)nc3ccc(C(c4ccc(Cl)cc4)c4nccs4)cc32)CC1` (centres unmarked) [Example 420], the results for the EC50 in assay [1] (setting [3]) and in assay [2] were 231 nM and greater than 10000 nM, respectively.

Consider `CCOC(=O)COc1cccc(-n2c(C3CC3)nc3ccc(C(c4ccc(Cl)cc4)c4ccc(Cl)cc4)cc32)c1` [Example 173], for which the EC50 in assay [1] (setting [3]) came to 55.9 nM; in assay [2], 9200 nM.

As for `NC(=O)c1ccc(CN2CCC(n3c(C4CC4)nc4ccc(C(c5ccc(Cl)cc5)c5ccc(Cl)cc5)cc43)CC2)cn1` [Example 105], the half-maximal effective concentration (EC50) came out at 5.1 nM in assay [1] (setting [3]) and 8000 nM in assay [2].

With `O=C(O)c1ccc(S(=O)(=O)N2CCC(n3c(C4CC4)nc4ccc(C(c5ccc(Cl)cc5)c5ccc(Cl)cc5)cc43)CC2)cc1Cl` [Example 253], the half-maximal effective concentration (EC50) stood at 4.7 nM in assay [1] (setting [3]) and 2420 nM in assay [2].

In the case of `CC(C)(C)c1nc2ccc(C(O)(c3ccc(Cl)cc3)c3ccc(Cl)cc3)cc2n1C1CCN(S(=O)(=O)C(F)(F)F)CC1` [Example 292], the EC50 is 2890 nM in assay [1] (setting [3]) and greater than 10000 nM in assay [2].

Regarding `CCc1nc2ccc(C(c3ccc(Cl)cc3)c3nccs3)cc2n1-c1cccc(Cl)c1` (centres unmarked) [Example 434], the EC50 in assay [1] (setting [3]) was 22.7 nM; in assay [2], greater than 10000 nM.

With `NC(=O)c1ccc(CN2CCC(n3c(C4CC4)nc4ccc(C(c5ccc(Cl)cc5)c5ccc(Cl)cc5)cc43)CC2)nc1` [Example 122], the figures for the EC50 in assay [1] (setting [3]) and in assay [2] were 4.9 nM and 9100 nM, respectively.
